Reference: patent publication US9463211B2, “Skin salve for treating intertrigo” (priority 2007, dated 2016)

Test system: intertrigo
Experiment: Topical application of the skin salve to patients suffering from intertrigo
Assay type: in vivo, human
Details: Example 2: person with diabetes, underside of breasts; before use of the skin salve
Experimental: In this experiment the skin salve made in Example 1 was evaluated on a person suffering from diabetes and intertrigo on the underside of their breasts. The intertrigo had caused the skin to be inflamed, burned, and was raw in some areas. This skin condition was painful and was aggravated by the patient's bra, heat, and sweat. Additionally, the intertrigo was an unsightly rash.
This patient had treated their intertrigo with a variety of over-the-counter salves and powders without success.
This patient topically applied the skin salve of this invention which was made by the procedure described in Example 1 to the inflamed skin under their breasts on two consecutive evenings after taking a bath. […]
In this experiment the skin salve made in Example 1 was evaluated on another person suffering from diabetes and intertrigo on the underside of their breasts. […]
In this experiment the skin salve made in Example 1 was evaluated on another person suffering from intertrigo on the underside of their breasts. […]
In this experiment the skin salve made in Example 1 was evaluated on a person suffering from intertrigo on the underside of their breasts. […]
In this experiment the skin salve made in Example 1 was evaluated on a person suffering from intertrigo on the underside of their breasts and the underside of their belly. […]

CC(C)O [isopropyl alcohol]
effect on intertrigo of the patient's earlier treatments: without any relief
